Holding throughout (type): physicochemical
A short description of data set [1]: Partition coefficient (logP). The following applies: octanol/water.
A short description of data set [2]: log P value was reported at a pH 2.0. The following applies: buffer.
The nature of data set [3]: Partition coefficient (logD) (0.1 N NaOH).

Numbered stars: 1 amine (or outer) side, 2 acyl side, 3 side chain; on linkers, the order of the positions; unused ones are H or OH. Bridge positions count the residues as written; N and C are the ends. Square brackets hold non-standard residues; d marks the D form. Peptide text beside a SMILES is read from it. I, II: the chains in the order shown. Actinocin(9to1) = Cc1c2oc3c(C)ccc(C(=O)[*:1])c3nc-2c(C(=O)[*:2])c(N)c1=O; NMeV = CN[C@H](C(=O)O)C(C)C; Sar = CNCC(=O)O

Usually logP stands for the decadic logarithm of the partition coefficient of the neutral form, usually between octanol and water. As usually defined, the logD is lipophilicity at a set pH, counting ionised and neutral species.

In the case of `Cc1c2oc3c(C)ccc(C(=O)N[C@@H]4C(=O)N[C@H](C(C)C)C(=O)N5CCC[C@H]5C(=O)N(C)CC(=O)N(C)[C@@H](C(C)C)C(=O)O[C@@H]4C)c3nc-2c(C(=O)N[C@@H]2C(=O)N[C@H](C(C)C)C(=O)N3CCC[C@H]3C(=O)N(C)CC(=O)N(C)[C@@H](C(C)C)C(=O)O[C@@H]2C)c(N)c1=O` [DACTINOMYCIN] (I: T[dV]P[Sar][NMeV] / II: T[dV]P[Sar][NMeV]; ester I:1-I:C, II:1-II:C; linker I:N-II:N via Actinocin(9to1)), in data set [1] (read-out: logP), the logP was determined as 3.21.
Same read-out and setting: with `COc1cccc2c1C(=O)c1c(O)c3c(c(O)c1C2=O)C[C@@](O)(C(C)=O)C[C@@H]3O[C@H]1C[C@H](N)[C@H](O)[C@H](C)O1` [DAUNORUBICIN] the figure was 0.66; with `COc1cccc2c1C(=O)c1c(O)c3c(c(O)c1C2=O)C[C@@](O)(C(=O)CO)C[C@@H]3O[C@H]1C[C@H](N)[C@H](O)[C@H](C)O1` [DOXORUBICIN], 0.1; with `NC(=O)NO` [HYDROXYUREA], -1.8.
In data set [2], `CN(Cc1cnc2nc(N)nc(N)c2n1)c1ccc(C(=O)N[C@@H](CCC(=O)O)C(=O)O)cc1` [METHOTREXATE] came in with a logD of -2.59.
Turning to `CO[C@@]12[C@H](COC(N)=O)C3=C(C(=O)C(C)=C(N)C3=O)N1C[C@@H]1N[C@@H]12` [MITOMYCIN], the lipophilicity (logP) in data set [1] is on record as -0.47.
In the case of `COc1ccc(OC)c(Cc2cnc3nc(N)nc(N)c3c2C)c1` [PIRITREXIM], the pH-dependent lipophilicity (logD) in data set [3] (0.1 N NaOH, read-out: logD) amounted to 2.13.
As for `COc1ccc(C[C@H](N)C(=O)N[C@H]2[C@@H](O)[C@H](n3cnc4c(N(C)C)ncnc43)O[C@@H]2CO)cc1` [PUROMYCIN], the lipophilicity (logP) in data set [1] (read-out: logP) came to 0.03.
`COCCOc1c(OC)cc(Cc2cnc(N)nc2N)cc1OC` [TETROXOPRIM] yielded a pH-dependent lipophilicity (logD) in data set [3] (octanol/water) of 0.6.
In the case of CISPLATIN, the logP in data set [1] is -1.45.

Values taken from ChEMBL document CHEMBL1122587 (J Med Chem, 1984).
